Tests used:
[1] = tested on: mice; assay: Maximal Electroshock Seizure (MES) test, mice i.p.; type: in vivo; conditions: Mus musculus, ip
[2] = tested on: mice; assay: Subcutaneous Metrazol Seizure threshold (s.c. MET) test, mice i.p.; type: in vivo; conditions: Mus musculus
[3] = tested on: mice; assay: Audiogenic Seizure susceptible (AGS) test, mice i.p.; type: in vivo; conditions: Mus musculus, ip
[4] = tested on: mice; assay: 6 Hz (minimal clonic seizure) model, mice i.p.; type: in vivo; conditions: Mus musculus, ip; mice, i.p.; read-out: 6 Hz ED50
[5] = tested on: rats; assay: s.c. MET test, rats p.o.; type: in vivo; conditions: Rattus norvegicus, p.o.
[6] = tested on: rats; assay: Hippocampal Kindled Rats model; type: in vivo; conditions: Rattus norvegicus
[7] = tested on: C3A hepatocyte cells; assay: ACTIVTox LDH release assay; type: cell-based
Experimental: Compounds A, I, H, and F were tested by Stem Cell Innovations, Inc. (Houston, TX) in their ACTIVTox® Human Liver Cell-based assays (using C3A hepatocyte cells). Specifically, the compounds were tested in the LDH release assay, which determines the release of Lactate DeHydrogenase (an indicator of cell death) at various concentrations of test compound.
A concentration of 100 µM of test compound is a much higher level of exposure to liver cells than would ever be expected under physiological conditions. Therefore, using 100 μM as a standard test concentration (for comparative purposes), the ratio of the absorbance (which measures the level of LDH release) resulting from the presence of the test compound versus the negative control is a value known as the “average (or mean) fold control” (Average Fold Control=Average of Absorbance/Average of Negative Control).

[8] = tested on: mice; assay: Mouse formalin pain model; type: in vivo; conditions: 76 mg/kg i.p., at 0.5 hours
[9] = tested on: kainate (KA) receptors; assay: Electrophysiology, kainate receptor currents; type: cell-based; conditions: at 100 μM, holding potential −70 mV
Source text: The mechanisms of action of many currently marketed anticonvulsant drugs are not fully understood. Although numerous molecular targets exist wherein anticonvulsants may exert an effect, the final common pathway appears to be through modulation of voltage-gated and/or neurotransmitter-gated ion channels. Thus, the common link among the various proposed mechanisms involves the ability of an anticonvulsant to modulate ion channel function. Presently, a number of prototype anticonvulsants are thought to exert their action (at least in part) by reducing sustained, high-frequency repetitive firing of action potentials by modulating voltage-dependent sodium (Na+) channels. The effect of promising candidate substances on voltage-gated Na+ channels can be assessed using state-of-the-art electrophysiological techniques.

[10] = molecular target: CYP-450 2B6 (Homo sapiens, UniProt P20813); assay: In vitro human CYP-450 study, 2B6; type: in vitro ADME; conditions: human enzyme
CYP-450 2B6, sequence (P20813 whole entry): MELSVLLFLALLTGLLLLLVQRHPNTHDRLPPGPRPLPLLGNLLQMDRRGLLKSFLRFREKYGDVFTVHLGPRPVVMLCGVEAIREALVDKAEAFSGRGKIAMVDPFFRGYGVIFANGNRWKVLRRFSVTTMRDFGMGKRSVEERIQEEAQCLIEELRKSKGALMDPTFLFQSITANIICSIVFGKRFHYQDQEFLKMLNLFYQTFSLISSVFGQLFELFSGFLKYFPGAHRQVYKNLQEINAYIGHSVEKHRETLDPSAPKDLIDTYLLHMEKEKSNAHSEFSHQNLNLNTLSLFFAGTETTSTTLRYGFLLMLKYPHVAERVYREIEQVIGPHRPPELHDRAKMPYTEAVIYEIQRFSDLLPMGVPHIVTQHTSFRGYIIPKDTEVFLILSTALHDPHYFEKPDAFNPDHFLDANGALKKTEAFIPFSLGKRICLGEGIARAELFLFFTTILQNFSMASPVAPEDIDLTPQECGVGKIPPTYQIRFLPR
Source text: (§1) On the other hand, it is an inhibitor for 2C19, 2D6, 2A6 and 2C9.

[11] = molecular target: CYP-450 1A2 (Homo sapiens, UniProt P05177); assay: In vitro human CYP-450 study, 1A2; type: in vitro ADME; conditions: human enzyme
CYP-450 1A2, sequence (P05177 whole entry): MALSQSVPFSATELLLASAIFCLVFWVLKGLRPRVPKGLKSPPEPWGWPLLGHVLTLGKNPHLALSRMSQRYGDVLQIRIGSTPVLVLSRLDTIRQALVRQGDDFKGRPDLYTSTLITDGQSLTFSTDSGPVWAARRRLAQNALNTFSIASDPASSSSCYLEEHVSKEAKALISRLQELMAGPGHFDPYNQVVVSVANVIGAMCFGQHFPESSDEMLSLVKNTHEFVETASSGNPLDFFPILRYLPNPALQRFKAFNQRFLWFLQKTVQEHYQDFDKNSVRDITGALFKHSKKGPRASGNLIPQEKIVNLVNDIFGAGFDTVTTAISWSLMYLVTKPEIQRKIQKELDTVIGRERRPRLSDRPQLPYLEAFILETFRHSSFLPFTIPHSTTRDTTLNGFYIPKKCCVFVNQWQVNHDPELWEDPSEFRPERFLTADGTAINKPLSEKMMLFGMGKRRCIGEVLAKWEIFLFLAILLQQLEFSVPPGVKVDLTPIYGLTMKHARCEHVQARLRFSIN
Source text: as §1

[12] = molecular target: CYP-450 2C19 (Homo sapiens, UniProt P33261); assay: In vitro human CYP-450 study, 2C19; type: in vitro ADME; conditions: human enzyme
CYP-450 2C19, sequence (P33261 whole entry): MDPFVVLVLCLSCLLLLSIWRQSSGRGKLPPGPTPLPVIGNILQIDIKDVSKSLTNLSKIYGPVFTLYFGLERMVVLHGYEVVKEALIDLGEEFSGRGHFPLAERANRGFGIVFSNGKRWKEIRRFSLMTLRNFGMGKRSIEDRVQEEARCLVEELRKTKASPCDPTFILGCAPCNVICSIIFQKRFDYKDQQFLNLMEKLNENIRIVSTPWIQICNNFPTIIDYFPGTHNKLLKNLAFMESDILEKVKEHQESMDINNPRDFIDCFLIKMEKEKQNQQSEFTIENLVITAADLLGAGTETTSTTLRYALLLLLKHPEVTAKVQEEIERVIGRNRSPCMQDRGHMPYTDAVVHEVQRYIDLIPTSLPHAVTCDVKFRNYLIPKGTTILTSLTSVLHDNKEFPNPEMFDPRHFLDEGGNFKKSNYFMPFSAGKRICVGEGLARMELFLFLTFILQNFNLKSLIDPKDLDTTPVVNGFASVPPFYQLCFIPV
Source text: as §1

[13] = molecular target: CYP-450 2D6 (Homo sapiens, UniProt P10635); assay: In vitro human CYP-450 study, 2D6; type: in vitro ADME; conditions: human enzyme
CYP-450 2D6, sequence (P10635 whole entry): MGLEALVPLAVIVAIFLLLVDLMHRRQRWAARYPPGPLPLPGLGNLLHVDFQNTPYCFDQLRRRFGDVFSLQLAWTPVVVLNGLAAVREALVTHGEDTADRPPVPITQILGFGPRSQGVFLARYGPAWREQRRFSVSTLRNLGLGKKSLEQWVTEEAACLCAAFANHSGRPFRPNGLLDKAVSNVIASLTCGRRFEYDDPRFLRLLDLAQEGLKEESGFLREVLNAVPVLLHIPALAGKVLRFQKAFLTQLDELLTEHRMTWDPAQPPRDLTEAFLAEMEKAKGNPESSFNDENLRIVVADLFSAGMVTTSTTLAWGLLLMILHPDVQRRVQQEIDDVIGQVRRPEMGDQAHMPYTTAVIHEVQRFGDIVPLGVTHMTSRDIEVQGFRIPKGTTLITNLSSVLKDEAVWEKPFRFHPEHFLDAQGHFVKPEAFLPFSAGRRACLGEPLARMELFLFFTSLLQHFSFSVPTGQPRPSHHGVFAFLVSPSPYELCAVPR
Source text: as §1

[14] = tested on: type II SMA fibroblasts (GM03813); assay: SMN protein localization, gem counting in type II SMA fibroblasts; type: cell-based; conditions: 100 nM-10 μM, 5 days
Experimental: To validate the SMN2 promoter and exon 7 screens, the effects of compounds H, H (acid form), AY, F, BX, and BY were evaluated on the basis of expression and localization of SMN protein in type II SMA fibroblasts (GM03813). In a normal cell, SMN protein localized within the nucleus to discreet foci known as gems. In SMN-deficient SMA cells, the number of gems is greatly diminished. Although the function of gems is unknown, it is believed that they are somehow involved in the snRNP assembly function of SMN. Gem counting can, therefore, be considered an assay for SMN function.
GM03813 fibroblasts were treated with different doses (100 nM-10 μM) of compounds H, H (acid form), AY, F, BX, and BY for 5 days. SMN immunostaining was then completed on these cells and the number of gems was counted in 100 randomly-selected nuclei. […] In fact, the gem counts at the highest dose of compound H approach those observed for carrier fibroblasts (GM03814). When compared against treatment with 1 μM D157495—a D156844 derivative, all of the compounds tested performed as well as or, even better than D157495.

[15] = in vivo; conditions: mouse, ip
Experimental: The animal testing was performed according to methods known in the relevant art.

[16] = tested on: rats; assay: Pilocarpine-induced Status Epilepticus in Rats (prevention; intervention @ 30 min)
Experimental: The animal testing was performed using the protocols developed in the Anticonvulsant Screening Program (ASP) at the National Institute of Neurological Disorders and Stroke (NINDS), National Institutes of Health (NIH).

[17] = tested on: hippocampal neurons; assay: Hippocampal cell loss after pilocarpine-induced SE (FluoroJade B); type: in vivo; conditions: given 30 minutes after the first stage 3 convulsive seizure
Source text: Pilocarpine-induced SE results in marked cell loss in the hippocampus, when compared to the naïve vehicle-treated rats, as evidenced by increased FluoroJade B fluorescence in the dentate gyrus (DG), CA1, and CA3 cell layers.

[18] = tested on: SMN2 promoter; assay: SMN2 promoter β-lactamase reporter assay in NSC34 motor neuron-like cells; type: cell-based
Experimental: FIG. 30 illustrates a screen for SMN2 expression of a number of compounds described herein.
SMN2 promoter activity was measured using NSC34 motor neuron-like cells stably transfected with a β-lactamase (BLA) reporter gene under the control of a 3.4-kilobase fragment of the SMN2 promoter. D156844 was used as a positive control for this assay.

[19] = Rattus norvegicus, 0.5 h, read-out: Intervention @ 30 min, Protection
[20] = Rattus norvegicus, read-out: Prevention, Protection

Structure (SMILES): CC(CC(N)=O)c1ccc(OC(F)(F)F)cc1 (racemic) [Compound H, 3-[4-(trifluoromethoxy)-phenyl]butyramide]
- ED50 ([1]; mice): 76.1 mg/kg
- ED50 ([1]; mice i.p., @ 0.5 hrs): 76.1 mg/kg
- ED50 ([2]; mice i.p., @ 0.5 hrs): 91.4 mg/kg
- ED50 ([2]; mice, i.p.): 91.4 mg/kg
- ED50 ([3]; mice): 22.5 mg/kg
- ED50 ([3]; mice i.p., @ 0.5 hr): 22.5 mg/kg
- ED50 [4]: 55 mg/kg
- ED50 [5]: 88.1 mg/kg
- ED50 [6]: 61 mg/kg
- LDH release, mean fold control ([7]; at 100 μM, C3A hepatocyte cells, value below 1.75 = no cyto- or hepatotoxic activity): 1.32
- cyto- or hepatotoxicity, ACTIVTox data ([7]; at physiologically relevant concentrations (i.e., <100 µM)): not cyto- or hepatotoxic
- pain response, acute phase [8]: 63 % of the control
- pain response, inflammatory phase [8]: 63 % of the control
- kainate (KA) receptor response [9]: 99±1 % of control
- inhibition of CYP-450 2B6 [10]: either no or only a remote possibility of inhibiting
- inhibition of CYP-450 1A2 [11]: either no or only a remote possibility of inhibiting
- inhibition of CYP-450 2C19 [12]: inhibitor
- inhibition of CYP-450 2D6 [13]: inhibitor
- gem counts (SMN immunostaining, 100 nuclei) [14]: increase gem counts in a dose-dependent manner
- relative potency in increasing gem counts [14]: most potent
- TD50 [15]: 159 mg/kg
- responders at 176 mg/kg [16, 19]: 97%
- responders at 200 mg/kg [16, 20]: 86%

Structure (SMILES): C[C@H](CC(N)=O)c1ccc(OC(F)(F)F)cc1 (single isomer, unassigned) [Compound BX, R-(−)-3-(4-Trifluoromethoxy-phenyl)butyramide]
- ED50 ([1]; mice i.p., @ 1.0 hr): 47.9 mg/kg
- ED50 ([2]; mice i.p., @ 1.0 hr): 51.4 mg/kg
- ED50 ([3]; mice i.p., @ 0.5 hr): 16.5 mg/kg
- pain response, acute phase [8]: 84 % of the control
- pain response, inflammatory phase [8]: 41 % of the control
- rats with partial neuroprotection (CA3 and hilar neurons of DG preserved) [17]: 2
- animals with complete neuroprotection of hippocampal neurons against SE-induced cell death ([17]; rats): 11/15
- SMN2 promoter assay, particularly strong hits ([18]; NSC34 BLA reporter cells): Particularly strong hits
- Promoter (SMN2 promoter test, summary YES/NO) ([18]; Table 13 summary): YES
- SMN2 promoter activity ([18]; treatment for 19 hours at a concentration of 1 μM): increased SMN2 promoter activity
- gem counts (SMN immunostaining, 100 nuclei) [14]: increase gem counts in a dose-dependent manner
- TD50 at 0.25 hr [15]: 104 mg/kg
- responders at 155 mg/kg [16, 19]: 50%
- responders at 100 mg/kg [16, 20]: 100%
- effect on convulsive SE ([16]; rats, 200 mg/kg, administered 30′ after the first stage 3 seizure): halted the convulsive SE

Reference: patent publication US12486218B2, “Compounds advantageous in the treatment of central nervous system diseases and disorders” (AurimMed Pharma, Inc., priority 2008, dated 2025)
